Data from PubChem BioAssay AID1963860 (Molecular Pharmacology Branch, DTP, NCI, 2024).

System: CN0375-F725-PDC KRAS spheroid viability
Test: Anticancer human tumor CN0375-F725-PDC patient-derived colon carcinoma cell line growth inhibition [KRAS2]
Settings: spheroids with HUVEC and MSC; for IC50: curve of first compound; for viability, T/C: stronger effect = lower value
How it was run: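 Combination screen of spheroid viability in tumor-cell co-cultures with endothelial (HUVEC) and mesenchymal stem cell stroma. Each agent was tested in half-log dilutions, topping at clinical Cmax or at 10 microM without a known Cmax.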

[1] = second compound 0.1 µM, first compound 0.01 µM
[2] = second compound 0.1 µM, first compound 0.0316 µM
[3] = second compound 0.1 µM, first compound 0.1 µM
[4] = second compound 0.1 µM, first compound 0.316 µM
[5] = second compound 0.1 µM, first compound 1 µM
[6] = second compound 0.1 µM, first compound 3.16 µM
[7] = second compound 0.316 µM, first compound 0.01 µM
[8] = second compound 0.316 µM, first compound 0.0316 µM
[9] = second compound 0.316 µM, first compound 0.1 µM
[10] = second compound 0.316 µM, first compound 0.316 µM
[11] = second compound 0.316 µM, first compound 1 µM
[12] = second compound 0.316 µM, first compound 3.16 µM
[13] = second compound 1 µM, first compound 0.01 µM
[14] = second compound 1 µM, first compound 0.0316 µM
[15] = second compound 1 µM, first compound 0.1 µM
[16] = second compound 1 µM, first compound 0.316 µM
[17] = second compound 1 µM, first compound 1 µM
[18] = second compound 1 µM, first compound 3.16 µM
[19] = second compound 3.16 µM, first compound 0.01 µM
[20] = second compound 3.16 µM, first compound 0.0316 µM
[21] = second compound 3.16 µM, first compound 0.1 µM
[22] = second compound 3.16 µM, first compound 0.316 µM
[23] = second compound 3.16 µM, first compound 1 µM
[24] = second compound 3.16 µM, first compound 3.16 µM
[25] = second compound 10 µM, first compound 0.0316 µM
[26] = second compound 10 µM, first compound 0.1 µM
[27] = second compound 10 µM, first compound 0.316 µM
[28] = second compound 10 µM, first compound 1 µM
[29] = second compound 10 µM, first compound 3.16 µM
[30] = second compound 0.1 µM, first compound 10 µM
[31] = second compound 0.316 µM, first compound 10 µM
[32] = second compound 1 µM, first compound 10 µM
[33] = second compound 3.16 µM, first compound 10 µM
[34] = second compound 10 µM, first compound 10 µM
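Note: spheroids exposed to agents for 7 days.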

Structure (SMILES) | IC50 (second compound 0.1 µM) | IC50 (second compound 0.316 µM) | IC50 (second compound 1 µM) | IC50 (second compound 3.16 µM) | viability, T/C [2] | viability, T/C [3] | viability, T/C [4] | viability, T/C [5] | viability, T/C [6] | viability, T/C [8] | viability, T/C [9] | viability, T/C [10] | viability, T/C [11] | viability, T/C [12] | viability, T/C [14] | viability, T/C [15] | viability, T/C [16] | viability, T/C [17] | viability, T/C [18] | viability, T/C [20] | further results
CC1COCCN1c1cc(-c2ccnn2C)c2ccnc(-c3ccn[nH]3)c2n1 (stereo not given) + C=CC(=O)N1CCN(c2nc(=O)n(-c3c(C)ccnc3C(C)C)c3nc(-c4c(O)cccc4F)c(F)cc23)C(C)C1 | > 3.16 µM | > 3.16 µM | > 3.16 µM | > 3.16 µM | 99.4% | 88.8% | 81.6% | 65.5% | 55.8% | 95.3% | 80% | 78.2% | 65.5% | 52.6% | 103% | 89% | 80.5% | 65.6% | 53.8% | 107% | IC50 (second compound 10 µM): 1.78 µM; viability, T/C [1]: 107%; viability, T/C [7]: 104%; viability, T/C [13]: 100%; viability, T/C [19]: 101%; viability, T/C [21]: 89.3%; viability, T/C [22]: 76.7%; viability, T/C [23]: 64.4%; viability, T/C [24]: 53.5%; viability, T/C (second compound 10 µM, first compound 0.01 µM): 102%; viability, T/C [25]: 103%; viability, T/C [26]: 84.5%; viability, T/C [27]: 71.7%; viability, T/C [28]: 55.5%; viability, T/C [29]: 44.6%
CC1OCC2(CCN(c3cnc(Sc4ccnc(N)c4Cl)c(N)n3)CC2)C1N (stereo not given) + C=CC(=O)N1CCN(c2nc(=O)n(-c3c(C)ccnc3C(C)C)c3nc(-c4c(O)cccc4F)c(F)cc23)C(C)C1 | > 10 µM | > 10 µM | > 10 µM | > 10 µM | 102% | 86.4% | 82.5% | 79.1% | 77.2% | 98.8% | 85.5% | 78.3% | 79.9% | 77.5% | 96.3% | 99.3% | 86.3% | 82.9% | 75.2% | 104% | IC50 (second compound 10 µM): > 10 µM; viability, T/C [30]: 63.6%; viability, T/C [31]: 59.8%; viability, T/C [32]: 65.6%; viability, T/C [21]: 92.4%; viability, T/C [22]: 81.4%; viability, T/C [23]: 81%; viability, T/C [24]: 71.6%; viability, T/C [33]: 65.6%; viability, T/C [25]: 94%; viability, T/C [26]: 92.2%; viability, T/C [27]: 77.9%; viability, T/C [28]: 66.3%; viability, T/C [29]: 61.8%; viability, T/C [34]: 49.6%
CCNC(=O)CC1N=C(c2ccc(Cl)cc2)c2cc(OC)ccc2-n2c(C)nnc21 (stereo not given) + C=CC(=O)N1CCN(c2nc(=O)n(-c3c(C)ccnc3C(C)C)c3nc(-c4c(O)cccc4F)c(F)cc23)C(C)C1 | > 10 µM | > 10 µM | > 10 µM | > 10 µM | 100% | 95.8% | 88.1% | 86% | 74.7% | 99.9% | 99.5% | 84.5% | 82% | 71.1% | 104% | 104% | 87.3% | 86.8% | 75.5% | 104% | IC50 (second compound 10 µM): > 10 µM; viability, T/C [30]: 57.4%; viability, T/C [31]: 58%; viability, T/C [32]: 64.7%; viability, T/C [21]: 94.9%; viability, T/C [22]: 88.4%; viability, T/C [23]: 85.1%; viability, T/C [24]: 67.9%; viability, T/C [33]: 59%; viability, T/C [25]: 102%; viability, T/C [26]: 99%; viability, T/C [27]: 84.6%; viability, T/C [28]: 71.6%; viability, T/C [29]: 73.9%; viability, T/C [34]: 60.8%
Cn1nccc1Nc1nccc(-c2cc3c(s2)C(C)(C)N(CCN2CCOCC2)C3=O)n1 + C=CC(=O)N1CCN(c2nc(=O)n(-c3c(C)ccnc3C(C)C)c3nc(-c4c(O)cccc4F)c(F)cc23)C(C)C1 | 6.96 µM | 5.32 µM | > 10 µM | 2.34 µM | 117% | 88% | 70.1% | 70.6% | 55.5% | 120% | 93.9% | 64.3% | 63.8% | 54.3% | 119% | 99.3% | 66% | 61.2% | 54.9% | 120% | IC50 (second compound 10 µM): 0.674 µM; viability, T/C [30]: 45.3%; viability, T/C [31]: 45%; viability, T/C [32]: 46.1%; viability, T/C [21]: 105%; viability, T/C [22]: 67.8%; viability, T/C [23]: 60.3%; viability, T/C [24]: 50.2%; viability, T/C [33]: 42.4%; viability, T/C [25]: 103%; viability, T/C [26]: 101%; viability, T/C [27]: 61.7%; viability, T/C [28]: 48.8%; viability, T/C [29]: 45.4%; viability, T/C [34]: 32.2%
CC(=O)OC12COC1CC(O)C1(C)C(=O)C(O)C3=C(C)C(OC(=O)C(O)C(NC(=O)OC(C)(C)C)c4ccccc4)CC(O)(C(OC(=O)c4ccccc4)C21)C3(C)C (stereo not given) + C=CC(=O)N1CCN(c2nc(OCC3CCCN3C)nc3c2CCN(c2cccc4cccc(C)c24)C3)CC1CC#N | > 3.16 µM | > 3.16 µM | > 3.16 µM | > 3.16 µM | 102% | 86.3% | 87% | 79.5% | 76.4% | 100% | 87.3% | 85.2% | 79.3% | 75.9% | 91.8% | 91.6% | 78.8% | 78.6% | 73.6% | 98.9% | IC50 (second compound 0.0316 µM): > 3.16 µM; viability, T/C (second compound 0.0316 µM, first compound 0.01 µM): 99.3%; viability, T/C (second compound 0.0316 µM, first compound 0.0316 µM): 99.2%; viability, T/C (second compound 0.0316 µM, first compound 0.1 µM): 87.2%; viability, T/C (second compound 0.0316 µM, first compound 0.316 µM): 82.5%; viability, T/C (second compound 0.0316 µM, first compound 1 µM): 81.8%; viability, T/C (second compound 0.0316 µM, first compound 3.16 µM): 79.2%; viability, T/C [1]: 104%; viability, T/C [7]: 100%; viability, T/C [13]: 96.7%; viability, T/C [19]: 96.2%; viability, T/C [21]: 93.7%; viability, T/C [22]: 83.5%; viability, T/C [23]: 88.3%; viability, T/C [24]: 79%
